{"source": "paper PMC10893631", "about": "“Receptor-based pharmacophore modeling, molecular docking, synthesis and biological evaluation of novel VEGFR-2, FGFR-1, and BRAF multi-kinase inhibitors” (BMC Chemistry, 2024)", "origin": "cited, not measured here", "molecular_target": "T1, VEGFR-2 (Homo sapiens, UniProt P35968)", "T1 construct": "purchased BPS Biosciences 40325", "T1 sequence (P35968 20-1356)": "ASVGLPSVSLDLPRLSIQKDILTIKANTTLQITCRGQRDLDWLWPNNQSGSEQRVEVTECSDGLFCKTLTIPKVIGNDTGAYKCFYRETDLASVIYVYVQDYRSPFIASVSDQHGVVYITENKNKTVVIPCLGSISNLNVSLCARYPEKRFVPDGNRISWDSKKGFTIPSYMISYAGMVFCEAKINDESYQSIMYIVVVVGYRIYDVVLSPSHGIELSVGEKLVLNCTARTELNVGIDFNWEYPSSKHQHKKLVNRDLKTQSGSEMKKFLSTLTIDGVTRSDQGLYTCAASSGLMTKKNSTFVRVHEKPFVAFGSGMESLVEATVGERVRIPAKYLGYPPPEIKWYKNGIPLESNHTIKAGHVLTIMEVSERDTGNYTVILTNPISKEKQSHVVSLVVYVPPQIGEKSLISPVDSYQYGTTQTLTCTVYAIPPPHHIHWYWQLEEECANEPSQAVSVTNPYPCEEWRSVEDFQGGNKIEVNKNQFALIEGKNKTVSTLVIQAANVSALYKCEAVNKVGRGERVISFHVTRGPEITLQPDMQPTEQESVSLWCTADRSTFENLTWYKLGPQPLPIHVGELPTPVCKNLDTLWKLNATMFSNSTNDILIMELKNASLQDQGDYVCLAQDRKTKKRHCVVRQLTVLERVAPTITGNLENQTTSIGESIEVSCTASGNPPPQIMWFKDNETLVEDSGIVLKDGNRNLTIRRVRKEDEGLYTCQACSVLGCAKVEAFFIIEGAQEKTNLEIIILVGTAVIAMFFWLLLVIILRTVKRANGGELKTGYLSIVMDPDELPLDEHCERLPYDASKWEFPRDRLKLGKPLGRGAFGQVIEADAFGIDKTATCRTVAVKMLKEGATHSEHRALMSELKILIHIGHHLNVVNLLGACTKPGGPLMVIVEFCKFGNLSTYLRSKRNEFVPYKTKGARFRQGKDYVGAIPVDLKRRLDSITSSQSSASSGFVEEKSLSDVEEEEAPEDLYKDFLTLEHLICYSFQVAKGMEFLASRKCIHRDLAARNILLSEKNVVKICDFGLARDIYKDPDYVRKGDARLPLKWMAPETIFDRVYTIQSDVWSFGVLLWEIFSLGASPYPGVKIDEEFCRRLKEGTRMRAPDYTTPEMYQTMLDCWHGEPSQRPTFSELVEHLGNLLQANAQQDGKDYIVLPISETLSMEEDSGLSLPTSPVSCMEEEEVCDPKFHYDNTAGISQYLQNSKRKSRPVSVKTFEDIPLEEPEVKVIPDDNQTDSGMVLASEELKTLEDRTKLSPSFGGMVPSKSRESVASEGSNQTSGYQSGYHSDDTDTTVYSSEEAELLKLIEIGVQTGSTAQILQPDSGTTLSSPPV", "design": "method as in PMID 17696416", "details": "cited from earlier work"}
{"smiles": "CNC(=O)c1cc(Oc2ccc3[nH]c(Nc4ccc(C(F)(F)F)c(Cl)c4)nc3c2)ccn1", "note": "[II]", "values": [{"measurement": "Ki", "value": 8.7, "unit": "nM"}]}
